Data as given in patent US20050187244A1 (Entire Interest., priority 2004, published 2005).

How the values were obtained:
[1] = Solid form transformation on drying; assay type: physicochemical; conditions: drying under heating, preferably 50 C. overnight under vacuum, about 10-100 mm Hg; monosodium salt
Protocol: The various forms are related in that drying of one form may lead to another form. Drying may be carried out under ambient or reduced pressure under heating. The temperature during heating is preferably about 40° C. to about 60° C., more preferably about 40° C. to about 50° C. The drying for a few days, such as about two days may be sufficient for transformation. In a preferred embodiment, drying is performed at 50C. overnight under vacuum, about 10-100 mm Hg.
Some solutions were stirred at room temperature; others were heated to the indicated temperature. The precipitate was recovered by filtration and washed with the solvent (5 mL) to obtain a wet sample. A portion of the wet sample was dried overnight in a vacuum at 50° C. at 10-50 mm Hg to obtain a dry sample. The wet and dry samples were analyzed by X-ray diffraction.

[2] = Solid form transformation while stirred in organic solvent (slurry); assay type: physicochemical; conditions: stirred in an organic solvent for more than about 2 days, e.g. dichloromethane and optionally heptane
Excerpt: The various forms are related in that one form may transform to another while in an organic solvent, such as a slurry resulting from crystallization. […] Such transformation occurs for example in a reaction mixture containing dichloromethane and optionally a C5 to C12 hydrocarbon such as heptane.

[3] = powder; cited from earlier work

| Compound | form obtained on drying [1] | form transformation in organic solvent [2] | hygroscopicity [3] |
| --- | --- | --- | --- |
| CC(C)(O)c1ccccc1CC[C@@H](SCC1(CC(=O)[O-])CC1)c1cccc(/C=C/c2ccc3ccc(Cl)cc3n2)c1.[Na+] [Form B1, [R-(E)]-1-[[[1-[3-[2-(7-chloro-2-quinolinyl)ethenyl]phenyl]-3-[2-(1-hydroxy-1-methylethyl)phenyl]propyl]thio]methyl]cyclopropaneacetic acid, monosodium salt] | Form C | transforms to Form C |  |
| CC(C)(O)c1ccccc1CC[C@@H](SCC1(CC(=O)[O-])CC1)c1cccc(/C=C/c2ccc3ccc(Cl)cc3n2)c1.[Na+] [Form B2, [R-(E)]-1-[[[1-[3-[2-(7-chloro-2-quinolinyl)ethenyl]phenyl]-3-[2-(1-hydroxy-1-methylethyl)phenyl]propyl]thio]methyl]cyclopropaneacetic acid, monosodium salt] | Form B1 or form C |  |  |
| CC(C)(O)c1ccccc1CC[C@@H](SCC1(CC(=O)[O-])CC1)c1cccc(/C=C/c2ccc3ccc(Cl)cc3n2)c1.[Na+] [Montelukast sodium, [R-(E)]-1-[[[1-[3-[2-(7-chloro-2-quinolinyl)ethenyl]phenyl]-3-[2-(1-hydroxy-1-methylethyl)phenyl]propyl]thio]methyl]cyclopropaneacetic acid, monosodium salt] |  |  | hygroscopic |
